Data published in PMC5354814, “In silico and in vitro drug screening identifies new therapeutic approaches for Ewing sarcoma” (Oncotarget, 2016).
Read-outs that look alike come from different tables or passages of the source.

What was measured:
[1] = system: A673; assay: Hits validation, dose-response cell proliferation (CellTiter-Glo); type: cell-based; settings: 12-point dose-response 50 μmol/L to 1 nmol/L, mean ± SD
Protocol: (§1) For hits validation and combination study, cells were harvested and aliquoted into 384-well plates at concentrations of 750–1,500 cells per well in a total of 20 μl/well using a Matrix Wellmate (Thermo Scientific). Five μl of culture media containing either vehicles or drug were added to each well the next day (drug concentrations range from 1 nmol/L to 50 μmol/L). For combination study, selected drugs were archived in robotically accessible plates, to which media was added in preparation for addition to master plates by a Nimbus 96 liquid-dispensing workstation (Hamilton). Liquid transfers to dilution and assay plates were handled using the same workstation. Each 384-well master plate contained four 9 by 9 dose-matrix blocks, with eight serial two-fold dilutions (concentrations range from 7.8 nmol/L to 1 μmol/L). Additional wells were reserved for untreated, and vehicle-treated control wells. Cell proliferation was evaluated using Cell-Titer Glo® reagents (Promega). IC50 values were determined for each drug using SigmaPlot (Systat Software). The combination index values were calculated using SigmaPlot (Systat Software) and CompuSyn.

[2] = system: RD-ES; assay: as above; type: cell-based; settings: 12-point dose-response 50 μmol/L to 1 nmol/L, mean ± SD
Protocol: as §1

[3] = system: Hs 919.T.; assay: as above; type: cell-based; settings: control cell line, 12-point dose-response, mean ± SD
Protocol: These drugs were chosen based on their known mechanisms and safety profiles. We also tested the synergy between these drug hits (Supplementary Figures S6–S11). […] We evaluated the anti-proliferation effect in combination treatments using the EWS and control cell lines.
as §1

[4] = system: A673 cells; assay: In vivo xenograft mouse model
Protocol: To assess the antitumor activity of auranofin (using an alternative delivery approach), ganetespib and the combination treatments in vivo, we generated a xenograft nude mouse model by injecting A673 cells intramuscularly proximal to the tibia. Based on the dose tolerance and pharmacokinetic studies described above, we administered auranofin at a tolerable daily i.p. dose that achieved adequate systemic drug exposure. Auranofin was administered with a dose of 12 mg/kg through an i.p. injection once a day for 5 days per week, and ganetespib was administered with a dose of 150 mg/kg through an i.v. injection once weekly. Mice that grew palpable tumors were randomized into four groups: vehicle, auranofin-only, ganetespib-only, and the combination.
The guidelines adopted by the Institutional Animal Care and Use Committee of the University of Kansas Medical Center (KUMC-IACUC) were followed in all performed procedures. All experimental protocols were approved by KUMC-IACUC. Homozygous athymic nude (Foxn1nu/Foxn1nu) female mice at the age of 4-weeks were purchased from Jackson Laboratories. After one week, one million A673 cells in PBS (pH = 7.3) were injected into mice. The cells were injected intramuscularly proximal to the tibia and treatment started after 15 days of inoculation. Mice developing palpable tumors were divided into 4 arms and treated for up to 18 days: vehicle (20% Cremophor RH40 and 80% D5W iv and 0.5% HPMC K4M ip), auranofin (12 mg/kg i.p. injection 5 days per week), ganetespib (150 mg/kg i.v. injection once weekly), as well as auranofin and ganetespib combined. Mice were evaluated for overall health and weighed every week. When tumor size impeded mobility, mice were sacrificed and necropsies were performed. Tumors were then dissected, measured and processed for analysis. The liver, kidneys, and spleen were also snap frozen in liquid nitrogen or fixed in 10% neutral buffered formalin and paraffin embedded for toxicity studies. Tissues were then subjected to hematoxylin and eosin (H&E) staining and immunohistochemical staining. […]

[5] = cited from earlier work
[6] = cited from earlier work; remark: listed apart in the source
[7] = design: method as in ref 19 (a number printed in a supplementary file, which may have a reference list of its own: not looked up in the article's list); settings: cited from earlier work
[8] = design: method as in ref 19 (a number printed in a supplementary file, which may have a reference list of its own: not looked up in the article's list); settings: 0.625 - 10 mg gold/kg p.o.; cited from earlier work
[9] = system: human monocyte; design: method as in ref 19 (a number printed in a supplementary file, which may have a reference list of its own: not looked up in the article's list); settings: 0.1 - 1.0 µg auranofin/mL; cited from earlier work
[10] = system: human polymorphonuclear neutrophil; design: method as in ref 19 (a number printed in a supplementary file, which may have a reference list of its own: not looked up in the article's list); settings: 0.1 - 1.0 µg auranofin/mL; cited from earlier work
[11] = system: natural killer cells; design: method as in ref 19 (a number printed in a supplementary file, which may have a reference list of its own: not looked up in the article's list); settings: cited from earlier work
[12] = system: mouse L929 fibroblasts; design: method as in ref 19 (a number printed in a supplementary file, which may have a reference list of its own: not looked up in the article's list); settings: 1µM auranofin; cited from earlier work
[13] = system: human monocytes; design: method as in ref 19 (a number printed in a supplementary file, which may have a reference list of its own: not looked up in the article's list); settings: 0.125 µg auranofin/mL; cited from earlier work
[14] = design: method as in ref 19 (a number printed in a supplementary file, which may have a reference list of its own: not looked up in the article's list); settings: cited from earlier work; remark: listed apart in the source
[15] = system: mouse spleen cells; design: method as in ref 19 (a number printed in a supplementary file, which may have a reference list of its own: not looked up in the article's list); settings: 1 x 10^-4M and 1 x 10^-5M; cited from earlier work
[16] = design: method as in ref 19 (a number printed in a supplementary file, which may have a reference list of its own: not looked up in the article's list); settings: cited from earlier work; remark: listed apart in the source

CC(=O)OC[C@H]1O[C@@H]([S-])[C@H](OC(C)=O)[C@@H](OC(C)=O)[C@@H]1OC(C)=O.CCP(CC)CC.[Au+] [Auranofin, auranofin]
IC50 [1]: 0.33 ± 0.22 µM
IC50 [2]: 2.45 ± 0.52 µM
IC50 [3]: 5.38 ± 0.89 µM
survival rate versus control group ([4]; auranofin 12 mg/kg i.p. 5 days per week, ganetespib 150 mg/kg i.v. once weekly, p < 0.05): significantly increased the survival rate
toxicity or adverse effects in xenograft study ([4]; auranofin 12 mg/kg i.p., ganetespib 150 mg/kg i.v.): did not show any noticeable toxicity or adverse effects
findings in pregnant rats ([5]; 2.5 mg/kg/day): No such effects were found
findings in pregnant rats ([5]; 5 mg/kg/day): increase above controls in the inc idence of resorptions and a decrease in litter size
perinatal and postnatal study findings, high dose group ([5]; female rats, 8 mg/kg/day, last trimester and lactation): An increase in fetal resorption
general reproductive performance ([5]; female rats, oral 0.25, 0.75 and 3.0 mg/kg/day): no adverse effect on estrous cyclicity
litter size, birth weight or viability of the offspring ([5]; female rats, oral 0.5, 2.5 and 5 mg/kg/day, days 6-15 of pregnancy): no effect on litter size
teratogenic effects in pregnant mice ([6]; 5 mg/kg/day): no ter atogenic
embryotoxic or teratogenic effect in mice ([6]; oral 0.2, 1 and 5 mg/kg/day, days 6-15 of pregnancy): no embryotoxic or teratogenic effect
tissue gold concentration ([7]; rat tissues): highest in the kidneys
absorption after oral dosing ([7]; rat): 19%
blood gold in plasma proteins ([7]; rat): 35%
blood gold in red blood cells ([7]; rat): 65%
urinary excretion ([7]; rat): 10%
elimination in feces ([7]; single oral dose, within 21 days, rat): 79%
suboptimal delayed hypersensitivity response [8]: stimulatory effect
phagocytosis [9]: inhibited
superoxide production and phagocytosis [10]: inhibited
activity of natural killer cells ([11]; high concentrations, 1.0 - 2.5 µg auranofin/mL): inhibited
activity of natural killer cells ([11]; low concentrations, 0.125 - 0.5 µg auranofin/mL): stimulated
ADCC [12]: inhibited
ADCC of human monocytes [13]: reduced
murine antibody production against SRBC [14]: inconsistent inhibition
plaque-forming cells [15]: marked inhibition
effect on hemodynamic and electrocardiographic parameters, pulmonary function, CNS activity, gastric mucosa or endocrine system [16]: no significant effect
